The values below come from article PMC11615764, “Discovery of Ketal‐Ester Ionizable Lipid Nanoparticle with Reduced Hepatotoxicity, Enhanced Spleen Tropism for mRNA Vaccine Delivery” (Advanced Science, 2024).

“Also recorded” adds a separate entry of the source. Where two headings read alike, the source gives them in different places. Bounds are passed on as bounds.

Data set [1] in a line: Encapsulation efficiency of LNPs, RiboGreen accessibility assay. The note with it: LNP: ionizable lipid/DSPC/Chol/DMG‐PEG2000 50:10:38.5:1.5, N/P 6. The class given is physicochemical. Here is the method: (§1) Particle size and polydispersity index (PDI) were determined by dynamic light scattering (DLS), apparent pKa was assessed using 6‐(p‐toluidino)‐2‐naphthalenesulfonic acid (TNS) dye‐binding assay, while encapsulation efficiency was evaluated by a RiboGreen accessibility assay.
(§2) The sizes of the LNP formulations were assessed by DLS (Malvern Zetasizer Pro). Quant‐it RiboGreen assay (ThermoFisher Scientific, Cat# R11490) was used to measure the encapsulation efficiency of the LNP formulations. Briefly, LNPs treated by 1% (v/v) Triton X‐100 (Adamas‐beta) to disrupt LNP structure and release mRNA and untreated LNPs were diluted to a concentration below 2 µg mRNA/mL, then reacted with an equal volume of RiboGreen assay solution at a 200‐fold dilution. Standard curves were generated within the range between 0.0 to 2.0 µg mRNA/mL using a series of free mRNA solutions with or without 1% v/v Triton X‐100. The concentrations of free mRNA and total mRNA in the formulation were determined using bulk fluorescent reading (excitation: 490 nm, emission: 535 nm) of the sample against the corresponding standard curves. The amount of RNA loaded into the LNPs (internal RNA) was calculated by subtracting the values obtained in 1 x TE (external RNA) from 1 x TE + 1% Triton X‐100 (total RNA). Subsequently, the encapsulation efficiency was calculated as the percentage obtained by dividing the amount of internal RNA by the total RNA amount.

Data set [2] can be described thus: LNP particle size and PDI by dynamic light scattering. The class given is physicochemical. The note with it: LNP: ionizable lipid/DSPC/Chol/DMG‐PEG2000 50:10:38.5:1.5, N/P 6; DLS. The protocol: as §1, §2
Data set [3] is described as follows: LNP apparent pKa, TNS dye‐binding assay. Type of data set: physicochemical. To be noted: apparent pKa of the LNP. The protocol: Following the formulation methods of SpikeVax and Onpattro, all KEL LNPs were formulated with standard helper lipids: DSPC, Chol, and DMG‐PEG2000 at a molar ratio of Ionizable lipid/DSPC/Chol/DMG‐PEG2000 50:10:38.5:1.5, and at an ionizable lipid to RNA charge ratio (N/P) of 6.^[ [25] ^] Particle size and polydispersity index (PDI) were determined by dynamic light scattering (DLS), apparent pKa was assessed using 6‐(p‐toluidino)‐2‐naphthalenesulfonic acid (TNS) dye‐binding assay, while encapsulation efficiency was evaluated by a RiboGreen accessibility assay.
A series of buffers with pH values varying by 1 between 3.0 and 12.0 were prepared by titrating a solution containing 10 mM citrate, 10 mM phosphate, 10 mM borate, and 150 mM NaCl with 1.0 M HCl and 0.5 M NaOH. LNPs were diluted to 75 µM ionizable lipid, TNS to 6 µM in these buffers. Fluorescence intensity was determined using a Thermo Scientific 3020 spectrophotometer (325 nm excitation/435 nm emission). With the resulting fluorescence values, a sigmoidal plot of fluorescence versus buffer pH was created. The […] inflection point of this curve was the apparent pKa of the LNP formulation.

Data set [4] has as its system 293T cells. To be noted: 50 µM.
The conditions of data set [5]: mouse, in vivo, iv, 0.5 mg/kg.
In data set [6] the test system is Balb/c mice. Description: In vivo firefly luciferase mRNA expression, whole‐body bioluminescence. Details: species or system mouse. To be noted: mLuci LNP, female Balb/c mice; for delivery potency (whole‐body luciferase), IV and IM: IV 1 mg/kg and IM 0.25 mg/kg; for whole‐body luciferase activity after IM administration: IM 0.25 mg/kg, compared with DLin‐MC3‐DMA LNP; for whole‐body luciferase activity after IV administration: IV 1 mg/kg. The protocol: Subsequently, the formulated KEL LNPs were evaluated for their in vivo delivery efficiency (Figure 1C). Wild‐type female Balb/c mice were administered with a single dose of LNPs containing firefly luciferase mRNA (mLuci) via IV or intramuscular (IM) injection (Figure 2A,B), followed by whole‐body luciferase activity assay. A control group receiving DLin‐MC3‐DMA‐based LNP was included in each experiment to facilitate comparisons across experiments.
Balb/c mice were injected intramuscularly (0.25 mg k^−1g) or intravenously (1 mg k^−1g) with LNPs. At 6 or 24 hrs post‐administration, mice were injected intraperitoneally with 150 mg k^−1g of D‐luciferin monosodium salt (ThermoFisher) and imaged using the in vivo imaging system (IVIS Lumina LT Series III) 10 min post intraperitoneally. 1 × PBS (IM: 50 µL; IV: 200 µL) was injected as a negative control.

Data set [7] has as its system 293T cells. Description: Cell Counting Kit‐8 cytotoxicity assay. To be noted: lipid alone at 50 µM, CCK8, 48 h.
Data set [8] deals with human liver microsomes. As to the kind of experiment: Microsomal stability of ionizable lipids, human. The note with it: 0.5 mg protein/mL, NADPH and UDPGA.
Data set [9] can be described thus: Biodegradability of LNPs after IV injection, ionizable lipid in plasma by LC‐MS/MS. The note with it: mLuci LNP IV 0.5 mg/Kg, mice.

For the molecule `CCCCC/C=C\C/C=C\CCCCCCCCC(CCCCCCCC/C=C\C/C=C\CCCCC)OC(=O)CCCN(C)C` [DLin‐MC3‐DMA, reference compound], the “Encapsulation efficiency (%)” value in [1] worked out at 96.7%. For the same molecule, in [2], the PDI is recorded as 0.15 and the “Size (nm)” value came to 72.70 nm. Further, the pKa in [3] was 6.33. Further, in data set [4], the cell viability entry was “over 80%”. For the same molecule, the “decline of ionizable lipid level in plasma during the first 6 hrs” value in data set [5] is given as “reduced faster than (4S)‐KEL12”.
Turning to `CCCCCCCCCCCOC(=O)CCCCCC1(CCCCCCCC(=O)OC(CCCCCCCC)CCCCCCCC)OCC(CN(C)C)O1` (stereo not drawn) [KEL1], the “Encapsulation efficiency (%)” value in [1] was 95.0%. In addition, in [2], the PDI was found to be 0.12 and the “Size (nm)” value is listed as 76.72 nm. Further, in data set [3], the pKa came to 5.72. In addition, in data set [6], the “delivery potency (whole‐body luciferase), IV and IM” value (“delivery potency” for short) is “lower delivery efficiency for both IV and IM administration”.
For the molecule `CCCCCCCCCCCOC(=O)CCCCCC1(CCCCCCCC(=O)OC(CCCCCCCC)CCCCCCCC)OCC(CCN(C)C)O1` (stereo not drawn) [KEL2], the “Encapsulation efficiency (%)” value in [1] stood at 92.3%. In addition, in data set [2], the PDI was determined as 0.03 and the “Size (nm)” value amounted to 70.27 nm. In addition, the pKa in [3] is given as 6.88. In data set [6], the “whole‐body luciferase activity after IM administration” value is “significantly higher levels of luciferase activity than the DLin‐MC3‐DMA LNP”; the “delivery potency” value is “higher potency than KEL1 and KEL4; also recorded: higher potency than LNPs with either double branched tails (KEL10) or double linear tails (KEL11)”.
As for `CCCCCCCCCCCOC(=O)CCCCCC1(CCCCCCCC(=O)OC(CCCCCCCC)CCCCCCCC)OCC(CCCN(C)C)O1` (stereo not drawn) [KEL3], the “Encapsulation efficiency (%)” value in data set [1] was found to be 89.3%. In data set [2], the PDI is reported as 0.16 and the “Size (nm)” value was 98.15 nm. Further, the pKa in data set [3] worked out at 6.86. In data set [6], the “whole‐body luciferase activity after IM administration” value is listed as “significantly higher levels of luciferase activity than the DLin‐MC3‐DMA LNP”; the “delivery potency” value was “higher potency than KEL1 and KEL4”.
Take `CCCCCCCCCCCOC(=O)CCCCCC1(CCCCCCCC(=O)OC(CCCCCCCC)CCCCCCCC)OCC(CCCCN(C)C)O1` (stereo not drawn) [KEL4]: the “Encapsulation efficiency (%)” value in [1] was determined as 91.0%. In addition, in data set [2], the PDI is given as 0.16 and the “Size (nm)” value was determined as 118.1 nm. Moreover, the pKa in data set [3] is listed as 7.40. Further, in data set [6], the “delivery potency” value is “considerable potency”.
With `CCCCCCCCCCCOC(=O)CCCCCC1(CCCCCCCC(=O)OC(CCCCCCCC)CCCCCCCC)OCC(CCN(C)CC)O1` (stereo not drawn) [KEL5], the “Encapsulation efficiency (%)” value in data set [1] turned out to be 96.5%. In addition, in data set [2], the PDI came out at 0.07 and the “Size (nm)” value came to 78.44 nm. The pKa in [3] worked out at 6.86.
The corresponding values for `CCCCCCCCCCCOC(=O)CCCCCC1(CCCCCCCC(=O)OC(CCCCCCCC)CCCCCCCC)OCC(CCN(CC)CC)O1` (stereo not drawn) [KEL6] are 97.5%, 0.06, 80.34 nm and 6.89.
As for `CCCCCCCCCCCOC(=O)CCCCCC1(CCCCCCCC(=O)OC(CCCCCCCC)CCCCCCCC)OCC(CCN(C)CCC)O1` (stereo not drawn) [KEL7], the “Encapsulation efficiency (%)” value in data set [1] worked out at 97.2%. Besides, in [2], the PDI worked out at 0.10 and the “Size (nm)” value was 61.73 nm. Further, the pKa in data set [3] came out at 5.91. For the same molecule, the “delivery potency” value in data set [6] is “lower delivery efficiency for both IV and IM administration”.
For `CCCCCCCCCCCOC(=O)CCCCCC1(CCCCCCCC(=O)OC(CCCCCCCC)CCCCCCCC)OCC(CCN(CC)C(C)C)O1` (stereo not drawn) [KEL8], in data set [1], the “Encapsulation efficiency (%)” value is 97.6%. In data set [2], the PDI is given as 0.03 and the “Size (nm)” value came to 71.68 nm. Besides, the pKa in [3] is given as 6.17. The “whole‐body luciferase activity after IV administration” value in data set [6] was “lower potency than those with pKa of 6.7‐7.0”.
Take `CCCCCCCCCCCNC(=O)CCCCCC1(CCCCCCCC(=O)NC(CCCCCCCC)CCCCCCCC)OCC(CCN(C)C)O1` (stereo not drawn) [KEL9]: the “Encapsulation efficiency (%)” value in data set [1] was 98.2%. For the same molecule, in data set [2], the PDI is reported as 0.05 and the “Size (nm)” value is on record as 125.0 nm. The pKa in [3] was found to be 7.03. For the same molecule, in [6], the “delivery potency” value is “significantly reduced delivery potency; also recorded: lower delivery efficiency for both IV and IM administration”.
As for `CCCCCCCCC(CCCCCCCC)OC(=O)CCCCCCCC1(CCCCCCCC(=O)OC(CCCCCCCC)CCCCCCCC)OCC(CCN(C)C)O1` (stereo not drawn) [KEL10], in [1], the “Encapsulation efficiency (%)” value was 96.5%. In [2], the PDI is listed as 0.10 and the “Size (nm)” value worked out at 69.23 nm. Besides, the pKa in [3] worked out at 6.09. In [6], the “delivery potency” value was “potency diminished compared to KEL2”; the “whole‐body luciferase activity after IV administration” value is “lower potency than those with pKa of 6.7‐7.0”.
With `CCCCCCCCCCCOC(=O)CCCCCC1(CCCCCC(=O)OCCCCCCCCCCC)OCC(CCN(C)C)O1` (stereo not drawn) [KEL11], the “Encapsulation efficiency (%)” value in data set [1] worked out at 93.3%. Also, in data set [2], the PDI worked out at 0.34 and the “Size (nm)” value came to 110.3 nm. The pKa in [3] is on record as 6.88. Further, in data set [6], the “delivery potency” value is recorded as “further decrease in potency compared to KEL10”.
As to `CCCCCCCCCCC(=O)OCCCCCCC1(CCCCCCCC(=O)OC(CCCCCCCC)CCCCCCCC)OCC(CCN(C)C)O1` (stereo not drawn) [KEL12], the “Encapsulation efficiency (%)” value in [1] was 94.9%. Also, in [2], the PDI was determined as 0.04 and the “Size (nm)” value amounted to 89.54 nm. The pKa in data set [3] was determined as 6.93. Further, in data set [6], the “whole‐body luciferase activity after IM administration” value is on record as “significantly higher luciferase activity than DLin‐MC3‐DMA LNP”; the “delivery potency” value was “higher potency than LNPs with either double branched tails (KEL10) or double linear tails (KEL11)”; the “whole‐body luciferase activity after IV administration” value is given as “significantly higher luciferase activity than DLin‐MC3‐DMA LNP by IV”.
Regarding `CCCCCCCCCCC(=O)OCCCCCCC1(CCCCCCCCOC(=O)C(CCCCCCCC)CCCCCCCC)OCC(CCN(C)C)O1` (stereo not drawn) [KEL13], in [1], the “Encapsulation efficiency (%)” value is reported as 91.0%. In data set [2], the PDI worked out at 0.09 and the “Size (nm)” value is reported as 99.68 nm. In addition, in data set [3], the pKa is reported as 6.44. Moreover, in data set [6], the “whole‐body luciferase activity after IM administration” value is “significantly higher luciferase activity than DLin‐MC3‐DMA LNP”; the “delivery potency” value was “higher potency than LNPs with either double branched tails (KEL10) or double linear tails (KEL11)”. The “whole‐body luciferase activity after IV administration” value in data set [6] (1 mg/kg) is “lower potency than those with pKa of 6.7‐7.0”.
`CCCCCCCCCCCOC(=O)CCCCCN(CCO)CCCCCCCC(=O)OC(CCCCCCCC)CCCCCCCC` [SM‐102]: the cell viability result in data set [7] is given as “over 80%”. Further, the “remaining after 120 minutes” value in data set [8] is reported as “about 80%”. In data set [9], the “decline of ionizable lipid level in plasma during the first 6 hrs” value is recorded as “reduced faster than (4S)‐KEL12”, the “ionizable lipid level in plasma after 12 hrs” value was below 10 ng/mL and the “ionizable lipid level in plasma after 24 hrs” value was “undetectable”.

A word on the pKa: it is the pH at which an ionisable group is half protonated.
